Source: a melting point compilation (Tetko et al.; mined from patent text by program, amines drawn as free bases though some values may be those of a salt)

First: CC(C)(c1ccc(N)c([N+](=O)[O-])c1)c1ccc(N)c([N+](=O)[O-])c1
Second: COc1ccc(Oc2c(C)cc([N+](=O)[O-])cc2C)cc1
The melting point of the first is higher: 207 to 210 °C for the first, 117 to 120 °C for the second.

First: COc1ccc2c(C(=O)NCCCCC(=O)O)cc3cc4c(cc3c2c1)OCO4
Second: COc1cc(Cl)cc(OC(=O)c2cc3cc(CCl)ccc3oc2=O)c1
The melting point of the first is lower: 137 to 138 °C for the first, 184 to 185 °C for the second.

First: Cc1ccc2c(c1)C(=NNC(=N)N)CC2
Second: COc1ccc2c(c1)CCC(CC#N)C2=O (configuration not stated)
The melting point of the first is higher: greater than 250 °C for the first, 90 to 93 °C for the second.

Compared with `Cc1ncsc1C(C)(O)c1cccs1` (configuration not stated), `c1csc(-c2ccc3nncn3n2)c1` is higher in melting point: 146 to 148 °C for the first, 155 to 159 °C for the second.

First: Cc1c(C)c(N2Cc3cc4c(cc3C2)OCO4)c(C)c2c1OC(C)(C)C2c1ccc(C(C)C)cc1 (configuration not stated)
Second: COc1cc(C)c(S(=O)(=O)NC(=S)Nc2nc(-c3ccc(C4CCCCC4)cc3)c(C)s2)c(C)c1
The melting point of the first is lower: 175 to 177 °C for the first, 177 to 178 °C for the second.

First: COC(=O)c1ccc2cccc3c2c1-c1ccccc1-3
Second: COc1ccc(CNC(=O)c2ccccc2)cc1
The melting point of the first is lower: 70 to 71 °C for the first, 98 to 99 °C for the second.

Compared with `COc1cccc(-c2nc(N)c(C#N)nc2-c2ccc(=O)n(C(C)C)c2)c1`, `Cc1c(-c2ccc(F)cc2)c(-c2ccccc2)nn1C(C)C` is lower in melting point: 192 °C for the first, 135 to 137 °C for the second.

First: COC(=O)CCc1cnoc1-c1ccc(Br)cc1
Second: CCOC(=O)c1cc(OC)ccc1CCc1cc2cc(C#N)ccc2o1
The melting point of the first is lower: 58 to 59 °C for the first, 92 to 93 °C for the second.

First: N#Cc1cc(N)n(-c2c(Cl)cc(-c3ccc(C(F)(F)F)cc3)cc2Cl)n1
Second: CCOC(=O)[C@@H](NC(=O)c1cc(-c2ncc(C(F)(F)F)cc2Cl)ccc1Cl)C(C)C
The melting point of the first is higher: 195 to 199 °C for the first, 90 to 92 °C for the second.

First: CC(C)(C)C(NC(=O)Cc1ccc(Cl)cc1)NC(Cc1cccc2ncccc12)=NC#N (configuration not stated)
Second: COc1cccc(CC(=O)O)c1OCCCc1cn(-c2ccc(C(F)(F)F)cc2)nc1C(C)C
The melting point of the first is higher: 186 to 188 °C for the first, 114 to 115 °C for the second.

First: CCn1ccc(=O)c2cnc(-c3ccncc3)nc21
Second: O=c1ncc(Cl)cn1CS(=O)c1ccc(Cl)cc1 (configuration not stated)
The melting point of the first is lower: 200 to 202 °C for the first, 262 °C for the second.

Compared with `Cc1c(CN2CCN(c3cccc(Cl)c3)C2=O)ncn1C(c1ccccc1)(c1ccccc1)c1ccccc1`, `CC(C)(C)OC(=O)NCc1cccc(C(O)c2cc(Cl)ccc2NCc2ccc(OCc3ccccc3)c(OCc3ccccc3)c2)c1` (configuration not stated) is lower in melting point: 189 to 191 °C for the first, 118 to 120 °C for the second.

Compared with `CC(=O)C1CCc2c([nH]c3ccc(Cl)cc23)C1` (configuration not stated), `CC(C)C(c1cc(Cl)ccc1N1CCCCC1)C(C(N)=O)c1ccc(C(=O)O)cc1` (configuration not stated) is higher in melting point: 159 to 161 °C for the first, 236 to 240 °C for the second.

First: COc1cnccc1NC(=O)Nc1ccc(N2CCN(C(=O)Nc3ccc(OCCO)cc3C(F)(F)F)CC2)cc1
Second: CCOc1cc(-c2cc(C(F)F)n3ncc(C(=O)Nc4cccc(S(C)(=O)=O)c4)c3n2)ccc1C(F)(F)F
The melting point of the first is lower: 142 to 143 °C for the first, 211 °C for the second.

Compared with `CCCC(=O)C(=CNc1ccc(OCC)c(C)n1)C(=O)OCC`, `COc1ccc([N+](=O)[O-])nc1C` is lower in melting point: 117 to 120 °C for the first, 96 to 98 °C for the second.

First: CC(=O)Oc1c(C(C)(C)C)cc(C#N)c(C)c1C(=O)Nc1ccc(C#N)cc1C(F)(F)F
Second: COc1ccc2c(C)c([N+](=O)[O-])ccc2c1C(F)(F)F
The melting point of the first is higher: 171 to 172 °C for the first, 141 to 142 °C for the second.

First: OCC1C(Cl)=Cc2ccccc21 (configuration not stated)
Second: CC1N=C(c2ccccc2)NC1=O (configuration not stated)
The melting point of the first is lower: 104 to 105 °C for the first, 165 °C for the second.

Compared with `NS(=O)(=O)c1c(Cl)nc2n1CCS2(=O)=O`, `COc1cccc(N2C(CO)=Cc3cc(S(N)(=O)=O)sc3S2(=O)=O)c1` is lower in melting point: 246 to 247 °C for the first, 180 to 182 °C for the second.

First: CCn1c(=O)c(C(=O)O)c(-c2ccccc2Cl)c2cc(C)c(C)cc21
Second: COC(=O)Cn1cc2c(c1C)-c1ccc(Cl)cc1C(c1ccccc1Cl)=NC2
The melting point of the first is lower: 168 to 170 °C for the first, 174 to 176 °C for the second.

Compared with `Cc1ccc(-n2c(=O)[nH]c(C(F)(F)F)c(F)c2=O)cc1C(=O)OC(C)C`, `COC(=O)C1=C(CF)NC(C)=C(C(=O)OC(C)C)C1c1cccc([N+](=O)[O-])c1Cl` (configuration not stated) is higher in melting point: 97 to 100 °C for the first, 156 to 157 °C for the second.

Compared with `Cc1[nH]c(=S)n(Nc2cccc(Cl)c2)c1-c1ccc(Cl)cc1`, `CC(=O)c1ccc([N+](=O)[O-])c(Nc2cccc(-c3cccnc3)c2)c1` is lower in melting point: 225 °C for the first, 112 to 113 °C for the second.

First: CCOC(=O)c1csc(S)n1
Second: CCOC(=O)c1cc2c(cn1)[nH]c1ccc(S(=O)(=O)N(C)C)cc12
The melting point of the first is lower: 120 to 121 °C for the first, 310 to 311 °C for the second.

First: CCCCCS(=O)(=O)NC(=O)/C=C/c1cc(OCCOC)nn1Cc1ccc(C(F)(F)F)cc1Cl
Second: CCCCOc1cc(/C=C/S(=O)(=O)NC(=O)OC(C)(C)C)n(Cc2ccc(Cl)cc2Cl)n1
The melting point of the first is lower: 130 to 132 °C for the first, 152 to 153 °C for the second.

Compared with `N=C(N)c1ccc(C(=O)NCCCC(=O)NCCC(=O)O)cc1`, `C=CCOC(=O)c1ccc(C(=O)SCc2ccc3c(c2)C(C)(C)CCC3(C)C)cc1` is lower in melting point: greater than 250 °C for the first, 79 to 80 °C for the second.

First: Cc1cc(O)c(Oc2ccccc2C#N)cc1[N+](=O)[O-]
Second: COc1ccccc1Oc1coc(C(=O)O)cc1=O
The melting point of the first is lower: 157 to 159 °C for the first, 202 to 203 °C for the second.

First: CC1c2ccccc2CC(C)(O)Cc2ccccc21 (configuration not stated)
Second: OC1Cc2c(I)cccc2CC1N1CCC(c2ccccc2)CC1 (configuration not stated)
The melting point of the first is lower: 100 to 135 °C for the first, 194 °C for the second.

Compared with `O=C(C#Cc1ccncc1)c1ccccc1`, `N#Cc1ccc(C(F)(F)C(F)(F)c2ccccc2)cc1` is higher in melting point: 74 to 75 °C for the first, 118 to 123 °C for the second.

First: CC1(C)CC(=C(c2ccc(O)cc2)c2ccc(/C=C/C(=O)O)cc2)CC(C)(C)C1
Second: CCCN1CCc2c(cccc2NC(=O)c2ccc(OC)cc2)C1
The melting point of the first is higher: 219 to 220 °C for the first, 162 to 164 °C for the second.

Compared with `O=c1[nH]c2cc(Br)c3c(c2[nH]c1=O)CN(Cc1ccccc1)CC3`, `COc1ccc(CN2CC=C(c3cc4ccccc4s3)CC2)cc1` is lower in melting point: 297 to 302 °C for the first, 158 to 160 °C for the second.

Going from `Fc1ccc2c(c1)NCc1ccccc1O2` to `O=C1c2cc(OCc3ccc4cc(F)ccc4n3)ccc2OCC1Oc1cccnc1` (configuration not stated), the melting point rises from 94 °C to 188 °C.

First: CCc1c(C)cccc1C(=O)NC1CN2CCC1CC2 (racemic)
Second: S=C(Nc1ccc(Cl)cc1)NC1CCCCC1
The melting point of the first is lower: 125 °C for the first, 179 to 180 °C for the second.

First: Cc1cc(Cl)c(C(N)=O)cc1[N+](=O)[O-]
Second: CNC(=O)c1ccc(C(=O)OC)cc1[N+](=O)[O-]
The melting point of the first is higher: 180 to 183 °C for the first, 155 °C for the second.

Compared with `CC(=O)Nc1c(C(O)(C(F)(F)F)C(F)(F)F)ccc2ccccc12`, `Cc1ccc2nc(C(O)[C@H](C)NC(=O)OCc3ccccc3)oc2c1` (some centres not stated) is lower in melting point: 155 to 156 °C for the first, 108 to 109 °C for the second.

First: CCN(CC)CCN1C(=O)C(C)(C)N=C(c2ccccc2Cl)c2cc([N+](=O)[O-])ccc21
Second: CCn1cc(C2(c3cccc(-c4cccnc4F)c3)N=C(N)N(C)C2=O)cc1COC (configuration not stated)
The melting point of the first is lower: 70 °C for the first, 154 to 157 °C for the second.

Compared with `COc1ccc(Cn2cnc3c(-c4ccco4)nc(OCc4ccccc4)nc32)cc1`, `Clc1ccc(Cn2cnc3c(-c4ccco4)ncnc32)cc1Cl` is higher in melting point: 122 °C for the first, 183 to 185 °C for the second.

Compared with `C/C(Cl)=C/CC(C(=O)O)C(=O)O`, `Cc1c(F)c(F)cc(F)c1C(=O)O` is higher in melting point: 95 to 97 °C for the first, 104 to 105 °C for the second.

First: CN(C)C(=O)n1nc(C(C)(C)C)cc1S(C)=O (configuration not stated)
Second: CC(C)(C)OC(=O)Nc1ccoc1C(N)=O
The melting point of the first is lower: 95 to 96 °C for the first, 140 to 143 °C for the second.

Compared with `c1ccc2c(OCCN3CCCCC3)c3ccccc3c(OCCN3CCCCC3)c2c1`, `Brc1ccccc1CCn1ccccc1=NC(=NC1CCCCC1)NC1CCCCC1` is higher in melting point: 103 to 106 °C for the first, 125 to 129 °C for the second.

Compared with `CC1(C)Cc2nc(C3CCCC3)c(C(=O)c3ccc(C(F)(F)F)cc3)c(-c3ccc(F)c(F)c3)c2C(O)C1` (configuration not stated), `COc1c(C2CCN(CCCCNC(=O)c3ccc(-c4ccc(Cl)s4)nc3)CC2)ccc2c1CCCC2` is higher in melting point: 166 to 168 °C for the first, 175 to 177 °C for the second.

First: COCCOCCOCC(=O)N(C)c1c(I)c(N)c(I)c(C(=O)O)c1I
Second: CC(=O)NCC1CN(c2ccc(N3CCN(C(=O)COC(=O)CCCN(C)C)CC3)c(F)c2)C(=O)O1 (configuration not stated)
The melting point of the first is higher: 100 to 109 °C for the first, 69 to 71 °C for the second.

Compared with `C[C@H]1[C@H](O)[C@H](O)C(S(=O)(=O)c2ccccc2)=C[C@H](C)[C@H]1O`, `CCCCSc1cc(C(=O)O)cc(S(N)(=O)=O)c1Oc1ccccc1` is higher in melting point: 143 to 145 °C for the first, 222 to 224 °C for the second.

First: Cc1cn(C2CCc3ccccc3C2)c(=S)n1Cc1ccc(C(=O)O)cc1 (configuration not stated)
Second: COc1ccc2c(c1)CCC(CN1CCC3(CC1)C(=O)NCN3c1ccccc1)C2=O (configuration not stated)
The melting point of the first is higher: 181 to 182 °C for the first, 177 to 179 °C for the second.

First: C=CCNc1nc(Cl)c2ccn(C)c2n1
Second: Cn1nc(S(C)(=O)=O)c(=O)c2ccc(Cl)cc21
The melting point of the first is lower: 113 to 114 °C for the first, 270 to 272 °C for the second.

First: Cc1ccc(C(O)(c2ccc(C)cc2)[C@H](C)n2ccnc2)cc1
Second: Cc1nc2cnccc2n1-c1ccc(O)cc1F
The melting point of the first is lower: 194 to 196 °C for the first, 294 °C for the second.

First: CCOC(=O)c1nn(-c2ccc(OC(F)F)cc2)c2cccc(Cl)c2c1=O
Second: CCCn1c(=O)c2c(N)n(C(=O)OC)nc2c2ccccc21
The melting point of the first is lower: 134 °C for the first, 180 to 184 °C for the second.

First: CNc1c([N+](=O)[O-])c(Br)nn1C
Second: Cc1cccc(-c2nsc(=O)o2)c1
The melting point of the first is higher: 185 °C for the first, 82.5 to 84 °C for the second.

First: COc1ccc2c(=O)c(C=O)coc2c1OC(C)=O
Second: CCONC(=O)n1nc(Oc2c(Cl)cc(C(F)(F)F)cc2Cl)cc1C
The melting point of the first is higher: 160 to 161 °C for the first, 105 to 107 °C for the second.

First: CN(C)CCOc1ccc2ccc(N)nc2n1
Second: Cc1nc(N)c2nc(CO)n(NCc3cccnc3)c2c1C
The melting point of the first is lower: 105 °C for the first, 258 to 260 °C for the second.

First: Clc1nc(SCc2cccc3ccccc23)nc2c1CCN2
Second: O=C1NC(c2ccccc2)=N/C1=C\c1c[nH]c2ncc(Cl)cc12
The melting point of the first is lower: 107 to 110 °C for the first, 250 °C for the second.

Compared with `O=C(Nc1cccc([N+](=O)[O-])c1)NC1CC(C(=O)O)Nc2cc(Cl)cc(Cl)c21` (configuration not stated), `O=C(CN1CCOCC1)N1CCN(c2ccc(O)cc2)CC1` is lower in melting point: 209 to 210 °C for the first, 197 °C for the second.

First: Cc1nnc(-c2ccccc2F)n2nc(OCc3cn(C)nn3)c(-c3ccsc3)c12
Second: C=CCS(=O)(=O)c1cccnc1S(N)(=O)=O
The melting point of the first is higher: 181 to 186 °C for the first, 178 °C for the second.
